Laboratory results reported in PubChem BioAssay (NCI).
Several values for one entry are separate records, joined by “and”; a condition that tells them apart may be missing. Identical values can stand only once.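 Five concentrations, 48 hours, 96-well plates. At the GI50, growth is halved. TGI is the concentration that stops growth completely.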

Experiments:
Test in all cases: NCI anticancer screen, dose series, 48 h
OVCAR-8 ovarian = tested on: OVCAR-8 ovarian
HOP-92 NSCLC = tested on: HOP-92 NSCLC
NCI-H522 lung = tested on: NCI-H522 lung
UO-31 renal = tested on: UO-31 renal
OVCAR-5 ovarian = tested on: OVCAR-5 ovarian
MCF7 breast = tested on: MCF7 breast
CAKI-1 renal = tested on: CAKI-1 renal
A549 NSCLC = tested on: A549 NSCLC
KM12 colon = tested on: KM12 colon
TK-10 renal = tested on: TK-10 renal

SMILES | GI50 (OVCAR-8 ovarian) | TGI (OVCAR-8 ovarian) | GI50 (HOP-92 NSCLC) | TGI (HOP-92 NSCLC) | GI50 (NCI-H522 lung) | TGI (NCI-H522 lung) | GI50 (UO-31 renal) | TGI (UO-31 renal) | GI50 (OVCAR-5 ovarian) | TGI (OVCAR-5 ovarian) | GI50 (MCF7 breast) | TGI (MCF7 breast) | GI50 (CAKI-1 renal) | TGI (CAKI-1 renal) | GI50 (A549 NSCLC) | TGI (A549 NSCLC) | GI50 (KM12 colon) | TGI (KM12 colon) | GI50 (TK-10 renal) | TGI (TK-10 renal)
COc1cc(/C=C/C(=O)c2ccccc2O)ccc1OCCCOc1cc2c(cc1OC)C(=O)N1CCC[C@H]1C=N2 | 0.0759 µM | 13.5 µM | 0.0499 µM | 0.99 µM | 66.2 nM | 0.453 µM | 0.0812 µM | 0.771 µM | 0.0354 µM | 1.16 µM | 0.0426 µM | > 36.9 µM | 0.0403 µM | 0.313 µM | 0.0315 µM | 1.24 µM | 0.0369 µM | 0.263 µM | 0.0794 µM | 1.62 µM
COc1ccc(-c2oc3ncnc(N)c3c2-c2ccc(NC(=O)Nc3cc(C(F)(F)F)ccc3F)cc2)cc1 | 0.79 µM | 3.73 µM | 0.808 µM | 5.4 µM | 1230 nM | 4.28 µM | 0.706 µM | 5.01 µM | 3.15 µM | 8.82 µM | 0.675 µM | 3.21 µM | 0.838 µM | 6.69 µM | 0.762 µM | 3.43 µM | 0.00588 µM | 1.51 µM | 0.67 µM | 3.37 µM
N#Cc1c(N)c(C(=O)c2ccc3c(c2)OCCO3)n2c1CCCC2 | 4.21 µM | > 100 µM | 2.33 µM | > 100 µM | 580 nM | – | 6.3 µM | > 100 µM | 8.82 µM | > 100 µM | 2.28 µM | > 100 µM | 3.18 µM | > 100 µM | 4.27 µM | > 100 µM | 1.37 µM | > 100 µM | > 28.5 µM | > 100 µM
O=C1/C(=C/c2ccc(Cl)cc2)N=C(c2ccccc2)N1c1cc(C(F)(F)F)ccc1Cl | 28.6 µM | > 100 µM | 20.3 µM | 58.5 µM | 20100 nM | 76 µM | 19.4 µM | > 100 µM | 24.9 µM | 64.2 µM | 17.6 µM | 57.9 µM | 31 µM | 69.5 µM | 24.2 µM | > 100 µM | 21.9 µM | 84 µM | 31.7 µM | > 100 µM
N#Cc1ccc2[nH]cc(Cc3c[nH]c4ccc(C#N)cc34)c2c1 | 10.2 µM | 28.2 µM | 8.52 µM | 22.8 µM | 7450 nM | 17.4 µM | 8.64 µM | 20.3 µM | 12.3 µM | 29.8 µM | 15.2 µM | > 50 µM | 8.92 µM | 22.1 µM | 9.73 µM | 24 µM | 9.88 µM | 20.1 µM | 13.5 µM | 33.5 µM
C/C(COc1ccc2oc(-c3ccccc3)cc(=O)c2c1)=N\O | > 100 µM | > 100 µM | 37.4 µM | > 100 µM | > 100000 nM | > 100 µM | 11.2 µM | > 100 µM | 22 µM | 84.7 µM | 10.1 µM | 36.7 µM | 32.5 µM | > 100 µM | 45.4 µM | > 100 µM | 2.39 µM | 39.7 µM | 22.6 µM | 94.7 µM
COc1ccc2c(c1)C(=O)/C(=C/c1ccc(O)cc1)O2 | 27.2 µM | > 75 µM | 3.37 µM | 9.65 µM | 1860 nM | 3.75 µM | 4.73 µM | 9.39 µM | 19.2 µM | 38.5 µM | 4.93 µM | 18.3 µM | 1.88 µM | 5.66 µM | 25.7 µM | 67.5 µM | 8.78 µM | 22.8 µM | 15 µM | 31 µM
Cc1ccc(NC(=O)CCc2nnc3s/c(=C\C=C\c4ccccc4)c(=O)n23)cc1 | – | 77.4 µM | – | > 100 µM | – | > 100 µM | – | > 100 µM | – | > 100 µM | – | > 100 µM | – | > 100 µM | – | > 100 µM | – | > 100 µM | – | > 100 µM
CC1(C)N=C(N)N=C(N)N1c1cccc(CCCCc2ccc(Cl)c(S(=O)(=O)F)c2)c1 | 9.28 µM | > 100 µM | 4.7 µM | 21.4 µM | 1260 nM | 18.8 µM | > 100 µM | > 100 µM | 6.02 µM | 22.1 µM | 3.28 µM | 17.7 µM | 21.3 µM | > 100 µM | 4.38 µM | 36 µM | 1.79 µM | 15.6 µM | 10.7 µM | 39.3 µM
Oc1cccc2cccnc12 | 3.39 µM and 14.6 µM and 2.67 µM | > 100 µM | – | > 100 µM | 220 nM and 487 nM and 1920 nM | – | – | > 100 µM | – | 21.1 µM and > 100 µM | 1.72 µM and 3.31 µM | 5.05 µM and > 31.6 µM | – | > 100 µM | 6.17 µM and 16.4 µM and 5.97 µM | > 100 µM | 3.04 µM and 14 µM and 5.1 µM | > 100 µM | 51.5 µM and 8.42 µM and 47.7 µM | > 100 µM
O=c1cccccc1O | – | > 100 µM | – | > 100 µM | – | > 100 µM | – | > 100 µM | – | > 100 µM | – | > 100 µM | – | > 100 µM | – | > 100 µM | – | > 100 µM | – | > 100 µM
C=C(C)[C@@H]1C/C=C(/COC(C)=O)CC[C@H]2O[C@@]2(C)CC/C=C(\C)CC1 | > 100 µM | > 100 µM | > 100 µM | > 100 µM | > 100000 nM | > 100 µM | 30.4 µM | > 100 µM | > 100 µM | > 100 µM | 81 µM | > 100 µM | > 100 µM | > 100 µM | 40.1 µM | > 100 µM | > 100 µM | > 100 µM | > 100 µM | > 100 µM
COc1ccc(OC)c(-c2cc(-c3ccc(Cl)cc3)nn2-c2ccccc2)c1 | 24.4 µM | 93.9 µM | 29.3 µM | > 100 µM | 12600 nM | > 100 µM | > 100 µM | > 100 µM | 88.4 µM | > 100 µM | 6.89 µM | > 100 µM | 24.2 µM | 66.9 µM | 65.8 µM | > 100 µM | 23.1 µM | > 100 µM | 26.1 µM | 88.2 µM
